Patent US20220125793A1, “CANCER THERAPY USING 3,5-DISUBSTITUTED BENZENE ALKYNYL COMPOUND AND IMMUNE CHECKPOINT INHIBITOR” (TAIHO PHARMACEUTICAL CO., LTD., priority 2019, published 2022)

Experiments:
[1] = system: mouse breast cancer cell line 4T1 subcutaneously implanted model; test: Influence on tumor immunity in model subcutaneously implanted with mouse breast cancer cell 4T1; assay type: in vivo, BALB/cAJcl mouse; conditions: Day 15
Protocol: Mouse breast cancer cell line 4T1 was subcutaneously implanted in a 6-week-old male BALB/cAJcl mouse. […] On the day following the final administration (Day 15), lymphocyte fractions were isolated from the tumor, spleen, and peripheral blood, and myeloid-derived suppressor cells (MDSCs) (CD11b^+/Gr−1^+ cells), CD4-positive T cells, and CD8-positive T cells were measured using a cell sorter.

urothelial cancer = conditions: cited from earlier work
[2] = 15 and 30 mg/kg/day oral, daily for 14 days, compared with control

## C=CC(=O)N1CC[C@H](n2nc(C#Cc3cc(OC)cc(OC)c3)c3c(N)ncnc32)C1 [compound 1, (S)-1-(3-(4-amino-3-((3,5-dimethoxyphenyl)ethynyl)-1H-pyrazolo[3,4-d]pyrimidin-1-yl)pyrrolidin-1-yl)prop-2-en-1-one]
[1]; [2]
  CD4-positive T cells in the peripheral blood lymphocyte fractions: tended to increase in a dose-dependent manner
  CD8-positive T cells in the peripheral blood lymphocyte fractions: tended to increase in a dose-dependent manner
  CD8-positive T cells in the spleen lymphocyte fractions: tended to increase in a dose-dependent manner
  MDSCs in the peripheral blood lymphocyte fractions: tended to decrease in a dose-dependent manner
[1]; any dose (15 or 30 mg/kg/day oral, daily for 14 days), compared with non-drug administration control, Student's t-test P<0.01
  MDSCs (CD11b+/Gr-1+ cells) in the spleen lymphocyte fractions: significant reduction

B1: vofatamab: an anti-FGFR3 antibody (antibody, chains of the INN, looked up, V domains shown)
VH: EVQLVESGGGLVQPGGSLRLSCAASGFTFTSTGISWVRQAPGKGLEWVGRIYPTSGSTNYADSVKGRFTISADTSKNTAYLQMNSLRAEDTAVYYCARTYGIYDLYVDYTEYVMDYWGQGTLVTVSS
VL: DIQMTQSPSSLSASVGDRVTITCRASQDVDTSLAWYKQKPGKAPKLLIYSASFLYSGVPSRFSGSGSGTDFTLTISSLQPEDFATYYCQQSTGHPQTFGQGTKVEIK
Urothelial cancer; combined use with pembrolizumab
  response in patients without FGFR genetic aberration: response by combined use with pembrolizumab is observed
Urothelial cancer; urothelial cancer patients, vofatamab administration
  sensitivity state of the cancer to immune checkpoint inhibitors: change from a “cold” state (low sensitivity to immune checkpoint inhibitors) to a “hot” state (high sensitivity to immune checkpoint inhibitors)
